Data reported in BindingDB's records for doi:10.1002/cbic.201100332 (University of British Columbia, 2011).

Molecular target: T1, Lysosomal acid glucosylceramidase (Homo sapiens, UniProt P04062)
T1 sequence (P04062 whole entry): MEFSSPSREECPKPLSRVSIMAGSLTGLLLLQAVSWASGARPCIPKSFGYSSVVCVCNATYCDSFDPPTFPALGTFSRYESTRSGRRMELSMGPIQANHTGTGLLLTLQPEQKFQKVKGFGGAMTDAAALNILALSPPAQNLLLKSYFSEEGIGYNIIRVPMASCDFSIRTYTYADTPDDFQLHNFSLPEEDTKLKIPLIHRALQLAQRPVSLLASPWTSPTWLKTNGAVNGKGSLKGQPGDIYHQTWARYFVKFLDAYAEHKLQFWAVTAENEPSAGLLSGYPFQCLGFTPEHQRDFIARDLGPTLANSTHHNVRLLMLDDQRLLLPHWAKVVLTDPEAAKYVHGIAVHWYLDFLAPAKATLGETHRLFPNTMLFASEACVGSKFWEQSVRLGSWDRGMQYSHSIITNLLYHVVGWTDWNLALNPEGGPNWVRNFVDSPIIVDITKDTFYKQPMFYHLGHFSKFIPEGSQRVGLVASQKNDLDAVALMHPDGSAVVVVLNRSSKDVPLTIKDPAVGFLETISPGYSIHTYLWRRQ
Assay: Fluorescene-based Assay
Description: Fluorescene-based assay using beta-glucocerebrosidase.

Structure (SMILES): CCCC1(CCC)NCC(O)C(O)C1CO (stereo unspecified) [Isofagomine derivative, 8]
- Ki (pH 5.5): 0.6 µM
- Ki (pH 7): 1.4 µM

Structure (SMILES): CCCC1NCC(O)C(O)C1CO (stereo unspecified) [Isofagomine derivative, 6]
- Ki (pH 5.5): 0.61 µM
- Ki (pH 7): 0.21 µM

Structure (SMILES): OCCCC1NCC(O)C(O)C1CO (stereo unspecified) [Isofagomine derivative, 10]
- Ki (pH 5.5): 0.1 µM
- Ki (pH 7): 0.11 µM
